LogPOW value and chromatographic logP data for two compounds are collected here from patent US11084895B2, “Modified polytetrafluoroethylene fine powder and uniaxially stretched porous body” (DAIKIN INDUSTRIES, LTD., priority 2013, dated 2021).

Molecules are shown by their SMILES.

The nature of this series: LogPOW, octanol-water partition coefficient calculated from HPLC elution time via calibration curve. It is filed as physicochemical. The settings on record: partition coefficient between 1-octanol and water, ODS-120T column, acetonitrile/0.6 mass % HClO4 aq. 1/1, 40° C. How it is done:
The LogPOW value is a partition coefficient between 1-octanol and water, and is represented by LogP, wherein P represents the ratio of (fluorosurfactant concentration in octanol)/(fluorosurfactant concentration in water) when an octanol/water (1:1) liquid mixture containing a fluorosurfactant is phase-separated.
The octanol-water partition coefficient represented by LogPOW is calculated as follows. HPLC is performed on standard substances (heptanoic acid, octanoic acid, nonanoic acid, and decanoic acid) each having a known octanol-water partition coefficient using TOSOH ODS-120T column (ϕ4.6 mm×250 mm) as a column and acetonitrile/0.6 mass % HClO4 aqueous solution=1/1 (vol/vol %) as an eluent at a flow rate of 1.0 ml/min, a sample amount of 300 μL, and a column temperature of 40° C., with detection light UV 210 nm. A calibration curve between the respective elution times and the known octanol-water partition coefficients is drawn, and the LogPOW value is calculated from the elution time of the sample liquid in HPLC based on the calibration curve.

Consider `N.O=C(O)C(F)(OC(F)(F)C(F)(OC(F)(F)F)C(F)(F)F)C(F)(F)F` (centres unmarked) [CF3OCF(CF3)CF2OCF(CF3)COONH4], for which the LogPOW value is no more than 3.4.
The chromatographic logP is a lipophilicity value derived from retention on a column. Consider `O=C(O)C(F)(F)C(F)(F)C(F)(F)C(F)(F)C(F)(F)C(F)(F)C(F)(F)F` [PFOA, ammonium perfluorooctanoate], for which the chromatographic logP is 3.5.
